# Biological target: T1, PKCα (Homo sapiens, UniProt P17252)
# T1 construct: isolate and photo-release endogenous PKCa from the undiluted detergent fractionated HeLa cell extracts; endogenous in cells; host or cells: HeLa cells (ATCC)
# Assay: PKCα sub-cellular translocation measured by kinase activity after photocleavable antibody isolation
# Type: cell-based
# Conditions: cultured HeLa cells stimulated with 200 nM PMA for 5 min; detergent fractionated; kinase activity of PC-antibody isolated PKCα; n=4
# Method: Cultured HeLa cells (ATCC; Manassas, Va.) were stimulated for 5 min with 200 nM Phorbol-12-Myristate-13-Acetate (PMA; EMD Biosciences, Inc., San Diego, Calif.) and subsequently detergent fractionated into sub-cellular compartments according to reported procedures [Ramsby et al. (1994) Electrophoresis 15, 265-277; Ramsby & Makowski. (1999) Methods Mol Biol 112, 53-66; Chiang et al. (2000) J Biochem Biophys Methods 46, 53-68]. PMA is a potent activator of PKCα and is well known to cause translocation of the kinase from the cytosolic to the membrane sub-cellular compartments [Ross & Joyner. (1997) Endothelium 5, 321-332; Bazan & Rapoport. (1996) J Pharmacol Toxicol Methods 36, 87-95; Yazlovitskaya & Melnykovych. (1995) Cancer Lett 88, 179-183].
# A photocleavable antibody conjugated solid affinity matrix was prepared and used to isolate and photo-release the antigen into solution essentially as described in Example 2 except that in this case, a photocleavable anti-IgG secondary antibody was used to immobilize the unlabeled primary antibody onto the solid affinity matrix. This antibody affinity matrix was used to isolate and photo-release endogenous PKCa from the undiluted detergent fractionated HeLa cell extracts. […]
compound,measurement,value
"CCCCCCCCCCCCCC(=O)O[C@@H]1[C@@H](C)[C@@]2(O)[C@@H](C=C(CO)C[C@]3(O)C(=O)C(C)=C[C@@H]23)[C@@H]2C(C)(C)[C@]12OC(C)=O [PMA, Phorbol-12-Myristate-13-Acetate]","PKCα distribution, cytosol",16±4%
same,"PKCα distribution, membrane",84±3%

# Reference: patent publication US8481263B2, “Bead-ligand-nascent protein complexes” (Ambergen, priority 2007, dated 2013)
